Where “and” joins values, the source holds several entries; their conditions need not be identical. Equal values may be shown once. Entries after “also recorded” stand apart in the source; their conditions may differ. Read-outs that look alike come from different tables or passages of the source.
Columns and labels:
[1] = test system: K 562 cells; assay: Induction of apoptosis, annexin V-FITC/propidium iodide flow cytometry, K 562; type: cell-based, human; conditions: increasing concentrations, 48 h
Description: (§1) It was determined that the cardiac glycosides (e.g., digoxin and ouabain) selectively induce apoptosis in cancer cells relative to normal non-transformed cells. Through the experiments, some cells were exposed to ultraviolet irradiation as a positive control for induction of apoptosis, whereas cells cultured under normal conditions (95% […]/5% CO2 at 37° C.) acted as the negative control (see Methods). The percentage of counted cells in the lower and upper right hand quadrants are indicative of cells in early and late apoptosis, respectively. The viable cells are at the lower left quadrant. The figures that follow are summaries of data stemming from analysis of percent of cell count undergoing apoptosis as measured in FIG. 1. […]
(§2) Tumor cell lines (5×10^5 cells/well) and PBMC (1×10^6 cells/well) were cultured in 24-well plates in the presence or absence of various concentrations of digoxin or ouabain for 48 h. The cells were harvested, washed twice in PBS, and analyzed for induction of apoptosis by annexin V-FITC/propidium iodide (PI) method (BD Bioscience, Lincoln Park, N.J.) according to the manufacturer's instructions. […] Apoptosis was determined by flow cytometric analyses on a FACScan (BD Biosciences, Lincoln Park, N.J.). Ten thousand cells were analyzed per sample. […]

[2] = test system: caspase-3 activity in Jurkat cells; assay: DEVD-dependent caspase-3 activity, Jurkat; type: cell-based, human; conditions: 100 nM, 12 h
Description: (§3) Measurement of DEVD-dependent caspase-3 activity is a measure of induction of apoptosis, irrespective of the apoptotic pathway activated. The effect of digoxin (100 nM) to induce activation of caspase-3 activity in these tumor cell lines and as well as normal PBMC was examined. Tumor cells (1×10^7 cell/mL) and PBMC (1×10^7 cells/mL) were exposed to ultraviolet irradiation or digoxin (100 nM) for 12 h. The cells were then analyzed for caspase-3 activation using caspase-3 activation assay kit following the manufacturer's instructions.
(§4) Caspase-3 activity was measured using a caspase-3 assay kit (Sigma-Aldrich Co. St Louis, Mo.). Briefly, tumor cell lines (1×10^7 cells/mL), and PBMC (1×10^7 cells/mL) were cultured in the presence or absence of the indicated concentration of digoxin. Cells were harvested by centrifugation and washed once with PBS. Cells were lysed with lysis buffer (30 mM Tris-HCl, pH 7.5, 150 mM NaCl, 1% Triton X-100, and 10% glycerol) and were centrifuged to remove cell debris, Caspase 3 activity was assayed in the cell lysate according to the manufacturer's instructions. The colorimetric assay is based on spectrophotometric detection of chromophore pNA at 405 nm after cleavage from labelled substrate DEVD-pNA. The level of caspase 3 activity is interpolated from a calibration curve.

[3] = target: T1, porcine cerebral cortex Na,K-ATPase; type: biochemical
T1 construct: other: 50% response relative to the m
Source text: In the current study, the sensitivity of cardiac glycosides on induction of apoptosis in lymphoblastic cancer cells was examined. The efficacy of digoxin and ouabain in inducing apoptosis in these cell lines was compared with NKA catalytic inhibition activity using porcine cerebral cortex (Table 1). The porcine cerebral cortex (PCC) is a model system known to express the three isoforms of NKA consisting of the three different alpha subunits (α1, α2 and α3) (Rose et al., Clin Chem, 40, 1674-1685 (1994)). The alpha subunit of the NKA contains the binding site of the cardiac glycosides, and like most cationic transporter proteins, the beta subunit act as chaperon, stabilizing the correct assembly of the alpha subunit and facilitating the delivery of the protein to the plasma membrane (Blanco et al., Am J Physiol, 275 (Renal Physiol. 44), F633-F650 (1998)).
In order to compare the concentrations of digoxin or ouabain that affect the induction of apoptosis with those that inhibit the sodium pump, the inhibitory potency of digoxin and ouabain on porcine cerebral cortex (PCC) Na.,K-ATPase catalytic activity was examined.
The values were calculated as 50% response relative to the maximum NKA activity on the PCC or maximum apoptosis on Jurkat and Daudi cells within the concentration ranges tested.
Inhibition of sodium pump catalytic activity by cardiac glycosides was measured by the release of phosphate upon hydrolysis of ATP (Qazzaz et al., Endocrinology, 141, 3200-3209 (2000)).

[4] = test system: PBMC; assay: Apoptosis after PHA stimulation, PBMC; type: cell-based, human; conditions: PHA 1 μg/mL, digoxin 10 nM-100 nM, 48 h
Description: (§5) Tumor cell lines (5×10^5 cells/well) and PBMC (1×10^6 cells/well) were cultured in 24-well plates in the presence or absence of various concentrations of digoxin or ouabain for 48 h. The cells were harvested, washed twice in PBS, and analyzed for induction of apoptosis by annexin V-FITC/propidium iodide (PI) method (BD Bioscience, Lincoln Park, N.J.) according to the manufacturer's instructions. Cells were washed once with 1× binding buffer and stained with annexin V-FITC (5 μL) and PI (10 μL) for 15 minutes in the dark. Apoptosis was determined by flow cytometric analyses on a FACScan (BD Biosciences, Lincoln Park, N.J.). Ten thousand cells were analyzed per sample. In experiments where the effect of PHA was studied, cells were seeded accordingly in a 24-well plate and stimulated with PHA (1 μg/mL) for a minimum of 2 hours before treatment with the indicated concentrations of ouabain or digoxin. As a positive control for apoptosis, cells were exposed to ultra violet irradiation for […] and apoptosis was analyzed according to the method described above.

[5] = test system: peripheral blood mononuclear cells (PBMC); assay: Induction of apoptosis, annexin V-FITC/propidium iodide flow cytometry, PBMC; type: cell-based, human; conditions: increasing concentration, 48 h
Description: as §1, §2

[6] = Kometiani et al. 2005; cited from earlier work
[7] = test system: caspase-3 activity in K 562 cells; assay: DEVD-dependent caspase-3 activity, K 562; type: cell-based, human; conditions: 100 nM, 12 h
Description: as §3, §4

[8] = test system: caspase-3 activity in PBMC; assay: DEVD-dependent caspase-3 activity, PBMC; type: cell-based, human; conditions: 100 nM, 12 h
Description: as §3, §4

[9] = test system: Daudi cells; assay: Induction of apoptosis, annexin V-FITC/propidium iodide flow cytometry, Daudi; type: cell-based, human; conditions: for highest percentage of apoptosis / increase in apoptosis vs untreated control: Daudi cells; for highest percentage of apoptosis: 500 nM, n=4; for increase in apoptosis vs untreated control: increasing concentration; for IC50: Homo sapiens, Daudi
Description: (§6) It was determined that the cardiac glycosides (e.g., digoxin and ouabain) selectively induce apoptosis in cancer cells relative to normal non-transformed cells. Through the experiments, some cells were exposed to ultraviolet irradiation as a positive control for induction of apoptosis, whereas cells cultured under normal conditions (95% […]/5% CO2 at 37° C.) acted as the negative control (see Methods). The percentage of counted cells in the lower and upper right hand quadrants are indicative of cells in early and late apoptosis, respectively. The viable cells are at the lower left quadrant. The figures that follow are summaries of data stemming from analysis of percent of cell count undergoing apoptosis as measured in FIG. 1.
(§7) Cell lines used in this study included: Jurkat E6-1, an acute human T-lymphoblastic leukemia cell line generated from a person; Daudi, a human B-lymphoblastoid line derived from Burkitt's lymphoma patient and K 562 derived from a human chronic myelogenous leukemia cell line. All cell lines were maintained in RPMI 1640 medium (Gibco Laboratories, Grand Island, N.Y.) supplemented with 10% fetal calf serum (FCS), 10 mM HEPES, 2 mM glutamine, 50 IU/mL penicillin, 50 μg/mL streptomycin, 0.1 mM non-essential amino acids and 1 mM sodium pyruvate and 0.5 μg/mL amphotericin B. Cells were cultured in a 5% CO2 atmosphere in a thermostatically maintained incubator (37° C.) in standard cell culture flasks. Cell cultures were split every 2-3 days and passage number noted.
as §5

[10] = test system: Jurkat cells; assay: Apoptosis after PHA stimulation, Jurkat; type: cell-based, human; conditions: PHA 1 μg/mL, digoxin 10 nM and 100 nM, 48 h
Description: as §5

[11] = test system: human lymphoblastic cell lines; assay: Induction of apoptosis in the cancer cell lines (Jurkat and Daudi together); type: cell-based; conditions: read-out: concentration needed to induce a 50% apoptotic response
Description: as §5

[12] = test system: caspase-3 activity in Daudi cells; assay: DEVD-dependent caspase-3 activity, Daudi; type: cell-based, human; conditions: 100 nM, 12 h
Description: as §3, §4

[13] = test system: Jurkat cells; assay: Induction of apoptosis, annexin V-FITC/propidium iodide flow cytometry, Jurkat; type: cell-based, human; conditions: for IC50: Homo sapiens, Jurkat; for highest percentage of apoptosis / increase in apoptosis vs untreated control: Jurkat cells; for highest percentage of apoptosis: n=4; for increase in apoptosis vs untreated control: increasing concentration 10 nM-500 nM
Description: as §6, §7, §5

[14] = 50% response relative to the maximum NKA activity on the PCC, read-out: IC50, Inhibitory Potency on Porcine cerebral cortex (PCC) NKA catalytic activity
[15] = range of the IC50, read-out: Range of IC50, Inhibitory Potency on PCC NKA catalytic activity
[16] = 50% response relative to maximum apoptosis within the concentration ranges tested, 48 h, read-out: IC50, Induction of apoptosis on acute T-cell lymphoblastic leukemic cells (Jurkat)
[17] = range of the IC50, read-out: Ranges of IC50, Induction of apoptosis on Jurkat

SMILES	increase in apoptosis vs untreated control [1]	IC50 [3, 14]	IC50 [3, 15]	increase in apoptosis vs untreated control [5]	highest percentage of apoptosis ([9]; 48 h)	increase in apoptosis vs untreated control ([9]; 48 h)	IC50 [13, 16]	IC50 [13, 17]	increase in apoptosis vs untreated control ([13]; 48 h)	other results
C[C@H]1O[C@@H](O[C@H]2[C@@H](O)C[C@H](O[C@H]3[C@@H](O)C[C@H](O[C@H]4CC[C@@]5(C)[C@H](CC[C@@H]6[C@@H]5C[C@@H](O)[C@]5(C)[C@@H](C7=CC(=O)OC7)CC[C@]65O)C4)O[C@@H]3C)O[C@@H]2C)C[C@H](O)[C@@H]1O [Digoxin, digoxin]	neither digoxin nor ouabain significantly induced apoptosis; also recorded: did not significantly (P>0.05) lead to increases in apoptosis	0.91 µM	0.82 to 1.01 µM	neither digoxin nor ouabain significantly induced apoptosis; also recorded: did not significantly (P>0.05) lead to increase in apoptosis	83.2±7.3% and 83.2%±7.3%	significantly (P<0.05) led to increase in apoptosis	0.024 µM	0.011 to 0.056 µM	significantly (P<0.05) led to increases in apoptosis	caspase-3 activity relative to the untreated controls [2]: 8 fold; percent of apoptosis in the presence of PHA [4]: No such effect; percent of apoptosis in the presence of PHA ([4]; listed as digoxin): No such synergistic effect; also recorded: no such synergistic increase; therapeutic concentrations in blood [6]: approximately 2 nM; caspase-3 activity relative to the untreated controls [7]: no such increases; caspase-3 activity relative to the untreated controls [8]: no such increases; IC50 ([9]; 48 h, read-out: IC50, Induction of apoptosis on B-cell Burkitt's lymphoma cells (Daudi)): 0.048 µM; IC50 ([9]; read-out: Ranges of IC50, Induction of apoptosis on Daudi): 0.035 to 0.065 µM; percent of apoptosis in the presence of PHA [10]: synergistically increased; percent of apoptosis in the presence of PHA ([10]; listed as digoxin): synergistically induced apoptosis; also recorded: synergistically increased; EC50 [11]: 0.02 to 0.04 µM; caspase-3 activity relative to the untreated controls [12]: 7 fold; highest percentage of apoptosis ([13]; 500 nM, 48 h): 50.2±4.5% and 50.2%±4.5%
C[C@@H]1O[C@@H](O[C@H]2C[C@@H](O)[C@]3(CO)[C@H]4[C@H](O)C[C@]5(C)[C@@H](C6=CC(=O)OC6)CC[C@]5(O)[C@@H]4CC[C@]3(O)C2)[C@H](O)[C@H](O)[C@H]1O [Ouabain, ouabain]	neither digoxin nor ouabain significantly induced apoptosis; also recorded: did not significantly (P>0.05) lead to increases in apoptosis	0.6 µM	0.55 to 0.65 µM	neither digoxin nor ouabain significantly induced apoptosis; also recorded: did not significantly (P>0.05) lead to increase in apoptosis	81.1±6.1%	significantly (P<0.05) led to increase in apoptosis	0.026 µM	0.019 to 0.048 µM	significantly (P<0.05) led to increases in apoptosis	IC50 ([9]; 50% response relative to maximum apoptosis within the concentration ranges tested, 48 h, read-out: IC50, Induction of apoptosis on B-cell Burkitt's lymphoma cells (Daudi)): 0.04 µM; IC50 ([9]; range of the IC50, read-out: Ranges of IC50, Induction of apoptosis on Daudi): 0.036 to 0.056 µM; EC50 ([11]; based on the maximum apoptosis at 500 nM, for each of the cancer cell lines): 0.02 to 0.04 µM; highest percentage of apoptosis ([13]; 100 nM, 48 h): 47.6±3.9% and 47.6±5.6%

Reference: patent US20110319351A1 (priority 2006, published 2011)
